Source: patent US20260293902A1, “METHODS OF CONTROLLING OR PREVENTING INFESTATION OF PLANTS BY THE PHYTOPATHOGENIC MICROORGANISM CORYNESPORA CASSIICOLA” (SYNGENTA CROP PROTECTION AG, priority 2023, published 2026)

Legend:
Corynespora cassiicola [1] = experiment: Control of Corynespora cassiicola (target leaf spot) in vitro: inhibition of fungal growth in nutrient broth (PDB); type: cell-based; conditions: 24° C., 3-4 days, photometric 620 nm, read-out: control of Corynespora cassiicola (inhibition of growth vs untreated control)
Method: Conidia of the fungus from cryogenic storage were directly mixed into nutrient broth (PDB potato dextrose broth). A DMSO solution of the test compounds was placed into a microtiter plate (96-well format) and the nutrient broth containing the fungal spores was added to it. The test plates were incubated at 24° C. and the inhibition of growth (% control of Corynespora cassiicola) was determined photometrically after 3-4 days at 620 nm. The activity of a compound is derived by comparing the inhibition of growth in the treated test solution to the growth in the untreated check. The concentration of the compounds was 6.7, 2.2, 0.74, 0.25, and 0.082 ppm.

Corynespora cassiicola [2] = experiment: Control of Corynespora cassiicola (target leaf spot) on soybean plants under field conditions; type: in vivo; conditions: for Control vs. untreated (%) / Mean severity (percentage of leaf area covered by disease lesions): three foliar applications, soybean, Brazil
Method: Tested fungicides were formulated and applied to soybean plants in a foliar broadcast spray using a handheld horizontal boom sprayer. Three applications were made over the course of the growing season, starting 45 days after crop emergence, with following applications at 14-day intervals. Trials were conducted across five locations in Brazil. Assessments of severity of infection from Corynespora cassiicola were made at weekly intervals, based on the percentage of leaf area covered by disease lesions. The results reflect the median scores for these assessments, excluding those with less than 10% severity in the untreated checks to limit the confounding effect of low disease pressure. Values are expressed as the mean disease severity score and as the percentage control relative to the untreated. The comparison is made between Compound A-1.3 at 35 grams active ingredient per hectare and the commercial compounds trifloxystrobin and picoxystrobin at their label rate of 60 grams active ingredient per hectare.

[3] = Trial 1, 60 g/ha, untreated check 24.9
[4] = Trial 2, 60 g/ha, untreated check 18.8

COC(=O)NCc1cc(-c2ccn(-c3c(F)cc(C(C)C)cc3F)n2)ccc1C [Compound A-1.1, methyl N-[[5-[1-(2,6-difluoro-4-isopropyl-phenyl)pyrazol-3-yl]-2-methyl-phenyl]methyl]carbamate]
inhibition of growth at 2.2 ppm (Corynespora cassiicola [1]): ≥ 50% | inhibition of growth at 6.7 ppm (Corynespora cassiicola [1]): ≥ 50%

COC(=O)NCc1cc(-c2ccn(-c3c(F)cc(C4CC4)cc3F)n2)ccc1C [Compound A-1.3, methyl N-[[5-[1-(4-cyclopropyl-2,6-difluoro-phenyl)pyrazol-3-yl]-2-methyl-phenyl]methyl]carbamate]
Control vs. untreated (%) (Corynespora cassiicola [2]; Trial 1, 35 g/ha): 63.9% | Mean severity (percentage of leaf area covered by disease lesions) (Corynespora cassiicola [2]; Trial 1, 35 g/ha, untreated check 24.9): 9.9 | Control vs. untreated (%) (Corynespora cassiicola [2]; Trial 2, 35 g/ha): 68.0% | Mean severity (percentage of leaf area covered by disease lesions) (Corynespora cassiicola [2]; Trial 2, 35 g/ha, untreated check 18.8): 5.3 | control of Corynespora cassiicola compared with commercial compounds, in words (Corynespora cassiicola [2]; field trials 1 and 2, 35 g/ha vs trifloxystrobin and picoxystrobin at 60 g/ha): better control of Corynespora cassiicola than both trifloxystrobin and picoxystrobin | inhibition of growth at 0.74 ppm (Corynespora cassiicola [1]; 0.74 ppm): ≥ 50% | inhibition of growth at 2.2 ppm (Corynespora cassiicola [1]): ≥ 50% | inhibition of growth at 6.7 ppm (Corynespora cassiicola [1]): ≥ 70%

CO/C=C(/C(=O)OC)c1ccccc1COc1cccc(C(F)(F)F)n1 [Picoxystrobin, picoxystrobin]
Control vs. untreated (%) (Corynespora cassiicola [2]; Trial 1, 60 g/ha): 45.9% | Mean severity (percentage of leaf area covered by disease lesions) (Corynespora cassiicola [2]; [3]): 14.8 | Control vs. untreated (%) (Corynespora cassiicola [2]; Trial 2, 60 g/ha): 20.0% | Mean severity (percentage of leaf area covered by disease lesions) (Corynespora cassiicola [2]; [4]): 14.0

CO/C=C(/C(=O)OC)c1ccccc1Oc1cc(Oc2ccccc2C#N)ncn1 [azoxystrobin]
inhibition of growth at 6.7 ppm (Corynespora cassiicola [1]): 50%

COC(=O)N(OC)c1ccccc1COc1ccn(-c2ccc(Cl)cc2)n1 [pyraclostrobin]
inhibition of growth at 6.7 ppm (Corynespora cassiicola [1]): 50%

CON=C(C(=O)OC)c1ccccc1CON=C(C)c1cccc(C(F)(F)F)c1 [trifloxystrobin]
Control vs. untreated (%) (Corynespora cassiicola [2]; Trial 1, 60 g/ha): 35.3% | Mean severity (percentage of leaf area covered by disease lesions) (Corynespora cassiicola [2]; [3]): 18.1 | Control vs. untreated (%) (Corynespora cassiicola [2]; Trial 2, 60 g/ha): 6.7% | Mean severity (percentage of leaf area covered by disease lesions) (Corynespora cassiicola [2]; [4]): 16.0 | inhibition of growth at 6.7 ppm (Corynespora cassiicola [1]): 50%
